Data on 25 molecules can be found in patent publication US20250304535A1, “KAT6 Inhibitors” (BeiGene Switzerland GmbH, priority 2024, published 2025).

For test [1], the target named is Recombinant human KAT6A protein (497-780) (Homo sapiens (Human), UniProt Q92794). In words: KAT6A biochemical TR-FRET assay. The settings on record: histone H4 peptide 2000 nM, AcCoA 300 nM, enzyme 5 nM. For orientation: In TR-FRET formats the signal depends on donor and acceptor labels being close together.
For test [2], the target named is Recombinant human KAT6B protein (657-1069) (Homo sapiens (Human), UniProt Q8WYB5). In words: KAT6B biochemical TR-FRET assay. The settings on record: histone H4 peptide 1000 nM, AcCoA 100 nM, enzyme 5 nM.
Sequence of Recombinant human KAT6B protein (657-1069) (Q8WYB5 657-1069): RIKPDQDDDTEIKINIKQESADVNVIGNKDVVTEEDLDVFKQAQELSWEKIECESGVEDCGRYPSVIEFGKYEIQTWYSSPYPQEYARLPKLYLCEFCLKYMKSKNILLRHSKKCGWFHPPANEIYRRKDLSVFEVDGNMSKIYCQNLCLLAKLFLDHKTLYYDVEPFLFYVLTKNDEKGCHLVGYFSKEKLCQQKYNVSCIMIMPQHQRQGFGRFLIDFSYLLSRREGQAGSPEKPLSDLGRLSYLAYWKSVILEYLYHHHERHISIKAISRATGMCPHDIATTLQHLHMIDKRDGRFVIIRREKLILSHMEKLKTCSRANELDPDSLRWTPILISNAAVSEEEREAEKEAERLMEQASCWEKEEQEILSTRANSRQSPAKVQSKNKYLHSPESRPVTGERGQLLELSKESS
In test [3] the test system is histone H3K23 acetylation in U-2 OS cells. In words: Histone H3 lysine 23 acetylation assay in U-2 OS cells (high content analysis). The test is classed as cell-based. Particulars: Homo sapiens, U2OS, 24 hrs exposure, H3K23ac level. The procedure, abridged: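 U-2 OS cells seeded overnight, then exposed 24 h to a 9-point compound dilution series; 0.1% DMSO medium as blank. Fixed, permeabilised, stained with anti-H3K23ac plus Alexa Fluor 647 secondary and DAPI; nuclear H3K23ac intensity read by high-content imaging. Inhibition = mean per-well cell intensity relative to on-plate blanks.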

pIC50: −log10 of the molar value.

Sequence of Recombinant human KAT6A protein (497-780) (Q92794 497-780): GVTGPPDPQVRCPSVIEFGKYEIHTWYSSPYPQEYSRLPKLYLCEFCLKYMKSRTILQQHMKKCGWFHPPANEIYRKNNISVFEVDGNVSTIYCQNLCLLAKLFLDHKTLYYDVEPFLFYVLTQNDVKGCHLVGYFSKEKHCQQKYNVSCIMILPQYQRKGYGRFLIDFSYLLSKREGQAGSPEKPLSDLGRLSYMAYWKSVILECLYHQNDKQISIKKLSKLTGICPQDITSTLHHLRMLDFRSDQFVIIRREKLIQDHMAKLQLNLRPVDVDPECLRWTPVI

Broadly, the pIC50 is the negative decadic logarithm of the IC50, by convention in mol/L. The term IC50 denotes the concentration that gives 50% inhibition. High values mean weaker potency, low ones greater potency. With `COc1ccc(C(C)(C)C)cc1S(=O)(=O)NC(=O)c1ccc(Cn2cccn2)c(OC)n1` [Example C40, 5-((1H-pyrazol-1-yl)methyl)-N-((5-(tert-butyl)-2-methoxyphenyl)sulfonyl)-6-methoxypicolinamide], the negative-log IC50 (pIC50) in test [1] and in test [2] was not below 8.30 throughout. In test [3], this molecule came in with an IC50 not above 10 nM.
Turning to `COc1ccc(C(C)(C)C)cc1S(=O)(=O)NC(=O)c1ccc(Cn2cccn2)c(Br)c1` [Example C14, 4-((1H-pyrazol-1-yl)methyl)-3-bromo-N-((5-(tert-butyl)-2-methoxyphenyl)sulfonyl)benzamide], the pIC50 in test [1] and in test [2] was not below 8.30 each time. Further, in test [3], the half-inhibitory concentration (IC50) was not above 10 nM.
With `COc1ccc(C(C)(C)C(F)(F)F)nc1S(=O)(=O)NC(=O)c1ccc(Cn2cccn2)c(OC)n1` [Example C54, 5-((1H-pyrazol-1-yl)methyl)-6-methoxy-N-((3-methoxy-6-(1,1,1-trifluoro-2-methylpropan-2-yl)pyridin-2-yl)sulfonyl)picolinamide], the negative logarithm of the IC50 (pIC50) in test [1] and in test [2] was not below 8.30 in each case. Also, in test [3], the IC50 is not above 10 nM.
`C#Cc1cc(C(=O)NS(=O)(=O)c2cc(C(C)(C)C)ccc2OC)ccc1Cn1cccn1` [Example C15, 4-((1H-pyrazol-1-yl)methyl)-N-((5-(tert-butyl)-2-methoxyphenyl)sulfonyl)-3-ethynylbenzamide]: the pIC50 in test [1] and in test [2] was not below 8.30 throughout. In test [3], this molecule displayed an IC50 not above 10 nM.
Take `COc1ccc(C(C)(C)C)cc1S(=O)(=O)NC(=O)c1ccc(Cn2cccn2)c(C2CCO2)c1` (stereo not drawn) [Example C18, 4-((1H-pyrazol-1-yl)methyl)-N-((5-(tert-butyl)-2-methoxyphenyl)sulfonyl)-3-(oxetan-2-yl)benzamide]: the pIC50 in test [1] and in test [2] was not below 8.30 in each case. Moreover, the IC50 in test [3] is not above 10 nM.
Take `COc1ccc(C(C)(C)C)cc1S(=O)(=O)NC(=O)c1ccc(Cn2cccn2)c(Br)c1F` [Example C11, 4-((1H-pyrazol-1-yl)methyl)-3-bromo-N-((5-(tert-butyl)-2-methoxyphenyl)sulfonyl)-2-fluorobenzamide]: the pIC50 in test [1] and in test [2] was not below 8.30 in each case. The same molecule gave an IC50 in test [3] not above 10 nM.
As for `COc1ccc2c(c1S(=O)(=O)NC(=O)c1ccc(Cn3cccn3)c(OC)n1)OCC2` [Example C58, 5-((1H-pyrazol-1-yl)methyl)-6-methoxy-N-((6-methoxy-2,3-dihydrobenzofuran-7-yl)sulfonyl)picolinamide], the pIC50 in test [1] and in test [2] was not below 8.30 in each case. This molecule also gave an IC50 in test [3] not above 10 nM.
Take `COc1ccc(C(C)(C)C)cc1S(=O)(=O)NC(=O)c1ccc(Cn2cccn2)c(C2CC2)n1` [Example C8, 5-((1H-pyrazol-1-yl)methyl)-N-((5-(tert-butyl)-2-methoxyphenyl)sulfonyl)-6-cyclopropyl-picolinamide]: the pIC50 in test [1] and in test [2] was not below 8.30 each time. Moreover, in test [3], the IC50 is not above 10 nM.
As to `COCC(C)(C)c1ccc(OC)c(S(=O)(=O)NC(=O)c2ccc(Cn3cccn3)c(OC)n2)c1` [Example C57, 5-((1H-pyrazol-1-yl)methyl)-6-methoxy-N-((2-methoxy-5-(1-methoxy-2-methylpropan-2-yl)phenyl)sulfonyl)picolinamide], the pIC50 in test [1] and in test [2] was not below 8.30 each time. This molecule returned an IC50 in test [3] not above 10 nM.
For `COc1cc(C(=O)NS(=O)(=O)c2c(OC)ccc3c2OCC3(C)C)ccc1Cn1cccn1` [Example C49, 4-((1H-pyrazol-1-yl)methyl)-3-methoxy-N-((6-methoxy-3,3-dimethyl-2,3-dihydrobenzofuran-7-yl)sulfonyl)benzamide], the pIC50 in test [1] and in test [2] was not below 8.30 each time. The molecule also showed an IC50 in test [3] not above 10 nM.
Consider `COc1ccc(C(C)(C)C)cc1S(=O)(=O)NC(=O)c1ccc(Cn2cccn2)c(N(C)C)c1` [Example C13, 4-((1H-pyrazol-1-yl)methyl)-N-((5-(tert-butyl)-2-methoxyphenyl)sulfonyl)-3-(dimethylamino)benzamide], for which the pIC50 in test [1] and in test [2] was not below 8.30 throughout. The same molecule displayed an IC50 in test [3] not above 10 nM.
`COc1cc(C(=O)NS(=O)(=O)c2cc(C3(OC)CC3)ccc2OC)ccc1Cn1cccn1` [Example C28, 4-((1H-pyrazol-1-yl)methyl)-3-methoxy-N-((2-methoxy-5-(1-methoxy-cyclopropyl)phenyl)sulfonyl)benzamide]: the negative logarithm of the IC50 (pIC50) in test [1] and in test [2] was not below 8.30 each time. In test [3], this molecule had a 50% inhibitory concentration (IC50) not above 10 nM.
`COc1ccc2c(c1S(=O)(=O)NC(=O)c1ccc(Cn3cccn3)c(OC)n1)OCC2(C)C` [Example C43, 5-((1H-pyrazol-1-yl)methyl)-6-methoxy-N-((6-methoxy-3,3-dimethyl-2,3-dihydrobenzofuran-7-yl)sulfonyl)picolinamide]: the pIC50 in test [1] and in test [2] was not below 8.30 each time. Further, the IC50 in test [3] is not above 10 nM.
Turning to `C=Cc1cc(C(=O)NS(=O)(=O)c2nc(C(C)(C)C)ccc2OC)ccc1Cn1cccn1` [Example C16, 4-((1H-pyrazol-1-yl)methyl)-N-((6-(tert-butyl)-3-methoxypyridin-2-yl)sulfonyl)-3-vinylbenzamide], the pIC50 in test [1] and in test [2] was not below 8.30 throughout. Also, the IC50 in test [3] was not above 10 nM.
On to `COc1ccc(C(C)(C)C)cc1S(=O)(=O)NC(=O)c1cc(Br)c(Cn2cccn2)cc1F` [Example C10, 4-((1H-pyrazol-1-yl)methyl)-5-bromo-N-((5-(tert-butyl)-2-methoxyphenyl)sulfonyl)-2-fluorobenzamide], for which the negative-log IC50 (pIC50) in test [1] and in test [2] was not below 8.30 each time. In test [3], this molecule came in with an IC50 not above 10 nM.
As to `COc1ccc(C23COC(C2)C3)cc1S(=O)(=O)NC(=O)c1ccc(Cn2cccn2)c(OC)n1` [Example C77, 5-((1H-pyrazol-1-yl)methyl)-N-((5-(2-oxabicyclo[2.1.1]hexan-4-yl)-2-methoxyphenyl)sulfonyl)-6-methoxypicolinamide], the pIC50 was 7.30 to 8.30 in test [1] and not below 8.30 in test [2]. The molecule further yielded an IC50 in test [3] not above 10 nM.
Consider `COc1cc2c(cc1S(=O)(=O)NC(=O)c1ccc(Cn3cccn3)c(OC)n1)C(C)(C)CO2` [Example C61, 5-((1H-pyrazol-1-yl)methyl)-6-methoxy-N-((6-methoxy-3,3-dimethyl-2,3-dihydrobenzofuran-5-yl)sulfonyl)picolinamide], for which the negative-log IC50 (pIC50) in test [1] and in test [2] was not below 8.30 throughout. The same molecule showed an IC50 in test [3] not above 10 nM.
Take `COc1ccc(C(C)(C)C)nc1S(=O)(=O)NC(=O)c1ccc(Cn2cccn2)c(Cl)c1` [Example C22, 4-((1H-pyrazol-1-yl)methyl)-N-((6-(tert-butyl)-3-methoxypyridin-2-yl)sulfonyl)-3-chlorobenzamide]: the pIC50 in test [1] and in test [2] was not below 8.30 in each case. This molecule yielded an IC50 in test [3] not above 10 nM.
As to `COc1ccc(C(C)(C)C)nc1S(=O)(=O)NC(=O)c1ccc(Cn2cccn2)c(C(F)F)c1` [Example C36, 4-((1H-pyrazol-1-yl)methyl)-N-((6-(tert-butyl)-3-methoxypyridin-2-yl)sulfonyl)-3-(difluoromethyl)benzamide], the pIC50 in test [1] and in test [2] was not below 8.30 each time. Also, the IC50 in test [3] is not above 10 nM.
Regarding `COc1ccc(C(C)(C)C)nc1S(=O)(=O)NC(=O)c1ccc(Cn2ccc(N)n2)c(OC)n1` [Example C37, 5-((3-amino-1H-pyrazol-1-yl)methyl)-N-((6-(tert-butyl)-3-methoxypyridin-2-yl)sulfonyl)-6-methoxypicolinamide], the pIC50 in test [1] and in test [2] was not below 8.30 in each case. The molecule also gave an IC50 in test [3] not above 10 nM.
For `COCc1cc(C(=O)NS(=O)(=O)c2cc(C(C)(C)C)ccc2OC)ccc1Cn1cccn1` [Example C12, 4-((1H-pyrazol-1-yl)methyl)-N-((5-(tert-butyl)-2-methoxyphenyl)sulfonyl)-3-(methoxymethyl)benzamide], the pIC50 in test [1] and in test [2] was 7.30 to 8.30 throughout. In addition, the IC50 in test [3] fell in the range of 10 to 100 nM.
For `COc1ccc2c(c1S(=O)(=O)NC(=O)c1ccc(Cn3cccn3)c(OC)n1)OCC21CCC1` [Example C60, 5-((1H-pyrazol-1-yl)methyl)-6-methoxy-N-((6-methoxy-2H-spiro[benzofuran-3,1′-cyclobutan]-7-yl)sulfonyl)picolinamide], the negative logarithm of the IC50 (pIC50) in test [1] and in test [2] was not below 8.30 throughout. In test [3], the IC50 is not above 10 nM.
As to `COc1ccc2c(c1S(=O)(=O)NC(=O)c1ccc(Cn3cccn3)c(C3CC3)n1)OCC2(C)C` [Example C47, 5-((1H-pyrazol-1-yl)methyl)-6-cyclopropyl-N-((6-methoxy-3,3-dimethyl-2,3-dihydrobenzofuran-7-yl)sulfonyl)picolinamide], the negative logarithm of the IC50 (pIC50) in test [1] and in test [2] was not below 8.30 each time. In test [3], this molecule returned an IC50 not above 10 nM.
Turning to `C=Cc1cc(C(=O)NS(=O)(=O)c2c(OC)ccc3c2OCC3(C)C)ccc1Cn1cccn1` [Example C50, 4-((1H-pyrazol-1-yl)methyl)-N-((6-methoxy-3,3-dimethyl-2,3-dihydrobenzofuran-7-yl)sulfonyl)-3-vinylbenzamide], the negative-log IC50 (pIC50) in test [1] and in test [2] was not below 8.30 in each case. For the same molecule, the IC50 in test [3] is not above 10 nM.
Consider `COc1ccc(C2(C)CCC2)cc1S(=O)(=O)NC(=O)c1ccc(Cn2cccn2)c(OC)n1` [Example C76, 5-((1H-pyrazol-1-yl)methyl)-6-methoxy-N-((2-methoxy-5-(1-methylcyclobutyl)phenyl)sulfonyl) picolinamide], for which the pIC50 in test [1] and in test [2] was not below 8.30 throughout. The same molecule gave a half-maximal inhibitory concentration (IC50) in test [3] not above 10 nM.
